Measured values taken from article PMC11980366, “Natural compounds target the M23B zinc metallopeptidase Mpg to modulate Neisseria gonorrhoeae Type IV pilus expression” (mBio, 2025).

Molecular target: Mpg (Neisseria gonorrhoeae, UniProt Q5F676)
Test: fluorescence thermal shift (Sypro-Orange)
Assay type: binding
Conditions: read-out: dTm at 5 μM

Chain of Mpg (Q5F676 31-430): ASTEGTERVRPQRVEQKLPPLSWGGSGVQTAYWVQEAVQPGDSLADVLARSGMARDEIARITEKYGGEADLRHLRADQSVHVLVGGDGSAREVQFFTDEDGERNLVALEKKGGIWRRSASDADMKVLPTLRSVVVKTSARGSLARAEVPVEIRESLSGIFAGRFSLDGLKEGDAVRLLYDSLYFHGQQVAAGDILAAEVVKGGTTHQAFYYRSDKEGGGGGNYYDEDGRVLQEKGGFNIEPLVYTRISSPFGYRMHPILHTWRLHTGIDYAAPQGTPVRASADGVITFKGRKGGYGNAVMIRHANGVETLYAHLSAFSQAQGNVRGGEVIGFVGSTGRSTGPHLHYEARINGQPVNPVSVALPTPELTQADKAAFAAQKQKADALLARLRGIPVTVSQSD

Compound	ΔTm at 5 µM [°C]
O=C(O)C[C@@H]1C(=O)O[C@H]2[C@H](OC(=O)c3cc(O)c(O)c(O)c3)[C@@H](OC(=O)c3cc(O)c(O)c4c3[C@H]1[C@@H](O)C(=O)O4)[C@H](OC(=O)c1cc(O)c(O)c(O)c1)O[C@@H]2COC(=O)c1cc(O)c(O)c(O)c1 [chebulinic acid]	-2.9
O=C1O[C@H]2[C@@H]3OC(=O)c4cc(O)c(O)c(O)c4-c4c(O)c(O)c5oc(=O)c6c(c(O)c(O)c7oc(=O)c4c5c76)-c4c(cc(O)c(O)c4O)C(=O)OC[C@H]3OC(O)[C@@H]2OC(=O)c2cc(O)c(O)c(O)c2-c2c1cc(O)c(O)c2O (mixture of isomers) [punicalagin]	-4.4
